Assay results reported in article PMC11253624, “Unsaturated fatty acid perturbation combats emerging triazole antifungal resistance in the human fungal pathogen Aspergillus fumigatus” (mBio, 2024).
Values after ≈ are worked out from the molar mass of the structure shown.

Experiments:
Aspergillus fumigatus [1] = test: FIC checkerboard synergy assay, A. fumigatus; format: cell-based; conditions: for MIC: Aspergillus fumigatus
Cryptococcus neoformans = test: FIC checkerboard assay MBX-7591 and oleic acid, C. neoformans; format: cell-based
Procedure: Single-treatment controls were completed with 50 µL of media to substitute the volume of the other compound. […] Additional untreated and media-only controls were added to the plate as described above. Incubation of the plates and MIC assessments (individual and in combination) were performed as described above. FIC calculations were done according to the established formula: ∑FIC=MIC combination compound A/MIC individual compound A + MIC combination compound B/MIC individual compound B . Synergy was considered equal or lower than 0.5, and antagonism was considered to be higher than 2. FIC scores reported represent between three and five biological replicates. All antifungal susceptibility testing was done in 96-well plates using RPMI 1640 media buffered with 165 mM of MOPS and pH 7 using NaOH. CLSI-based microbroth dilution assays were done in accordance with M27 ([49]). […] Additionally, an untreated control (100 µL of a stock of 2 × 10^3 spores/mL and 100 µL of media) and a media-only control (200 µL media) were included in the plate. The plate was covered in a Breathe-Eazy membrane to allow for uniform oxygen diffusion throughout the plate and incubated for 24 hours at 35°C (Candida spp.) or 72 hours at 35°C ± 5% CO2 (Cryptococcus neoformans).

Aspergillus fumigatus [2] = test: CLSI-based microbroth dilution MIC, A. fumigatus strains; conditions: Aspergillus fumigatus
A. fumigatus CEA10 = test: Fatty acid profile of 24-hour biofilms by GC-MS; format: cell-based, Aspergillus fumigatus; conditions: CEA10 24-hour biofilm; MBX-7591 0.58 µg/mL, voriconazole 0.0625 µg/mL

SMILES: OC(Cn1cncn1)(Cn1cncn1)c1ccc(F)cc1F [Fluconazole, fluconazole]
- MIC (Aspergillus fumigatus [1]; strain CEA10, FLC alone, read-out: MIC Azole (FLC)): > 256 µg/mL
- MIC Azole in combination (FLC) (Aspergillus fumigatus [1]; strain CEA10, FLC with 0.613 µg/mL MBX-7591): 16 µg/mL
- fold increase in FLC potency (Aspergillus fumigatus [1]; with 0.613 µg/mL MBX-7591): > 16 fold

SMILES: CCCCCCCC/C=C\CCCCCCCC(=O)O [Oleic acid, oleic acid]
- MIC (Aspergillus fumigatus [1]; CEA10, oleic acid alone, read-out: MIC OA): > 500 µg/mL
- MIC OA combination (Aspergillus fumigatus [1]; CEA10, first line of Table S8 (MBX-7591 9.81 μg/ml)): 7.81 µg/mL
- MIC OA combination (Aspergillus fumigatus [1]; CEA10, second line of Table S8 (MBX-7591 19.63 μg/ml)): 15.63 µg/mL
- MIC (Cryptococcus neoformans; Cryptococcus neoformans, H99, oleic acid alone, 5% CO2): > 500 µg/mL
- MIC OA combination (Cryptococcus neoformans; H99, 5% CO2): 31.25 µg/mL

SMILES: C[C@@H](c1ncncc1F)[C@](O)(Cn1cncn1)c1ccc(F)cc1F [Voriconazole]
- MIC (Aspergillus fumigatus [2]; ATCC46455, read-out: Voriconazole MIC): 0.25 to 0.5 µg/mL (≈ 0.716 to 1.43 µM)
- MIC (Aspergillus fumigatus [2]; read-out: Voriconazole MIC, strain 08-19-02-10 (TR34/L98H)): 2 µg/mL (≈ 5.73 µM)
- MIC (Aspergillus fumigatus [2]; read-out: Voriconazole MIC, strain 08-19-02-46 (TR34/L98H)): 2 µg/mL (≈ 5.73 µM)
- MIC (Aspergillus fumigatus [2]; read-out: Voriconazole MIC, strain 08-19-02-61 (TR34/L98H), Table S6): 1 µg/mL (≈ 2.86 µM)
- MIC (Aspergillus fumigatus [2]; read-out: Voriconazole MIC, strain 08-31-08-91 (TR34/L98H), Table S6): 4 µg/mL (≈ 11.5 µM)
- MIC (Aspergillus fumigatus [2]; read-out: Voriconazole MIC, strain 10-19-02-27 (TR34/L98H)): 4 µg/mL (≈ 11.5 µM)
- MIC (Aspergillus fumigatus [2]; read-out: Voriconazole MIC, strain F11628 (G138C), Table S6): > 8 µg/mL
- MIC (Aspergillus fumigatus [2]; read-out: Voriconazole MIC, strain F15390 (M220T), Table S6): 1 µg/mL (≈ 2.86 µM)
- MIC (Aspergillus fumigatus [1]; read-out: MIC VCZ, strain 08-19-02-61 (TR34/L98H), alone): 2 µg/mL
- MIC (Aspergillus fumigatus [1]; read-out: MIC VCZ, strain 08-31-08-91 (TR34/L98H), alone): 4 µg/mL
- MIC (Aspergillus fumigatus [1]; read-out: MIC VCZ, strain F11628 (G138C), alone): > 8 µg/mL
- MIC (Aspergillus fumigatus [1]; read-out: MIC VCZ, strain F15390 (caf8) (M220T), alone): 1 µg/mL
- MIC (Aspergillus fumigatus [1]; strain CEA10, alone, read-out: MIC VCZ): 0.25 to 0.5 µg/mL
- MIC VCZ in combination (Aspergillus fumigatus [1]; strain 08-19-02-61, with MBX-7591): 0.5 µg/mL
- MIC VCZ in combination (Aspergillus fumigatus [1]; strain 08-31-08-91, with MBX-7591): 1 µg/mL
- MIC VCZ in combination (Aspergillus fumigatus [1]; strain CEA10, with MBX-7591, listed as VCZ): 0.0625 to 0.125 µg/mL
- MIC VCZ (Aspergillus fumigatus [1]; strain F11628 (G138C), alone, listed as VCZ): >8 µg/mL
- MIC VCZ in combination (Aspergillus fumigatus [1]; strain F11628, with MBX-7591): 0.5 to 1 µg/mL
- MIC VCZ in combination (Aspergillus fumigatus [1]; strain F15390 (caf8), with MBX-7591): 0.25 µg/mL
- increase in VCZ potency in combination (Aspergillus fumigatus [1]; with 0.613 µg/mL MBX-7591): four to eight times more potent
- C14:0 relative percentage of fatty acids (A. fumigatus CEA10): 0.11 ± 0.0046
- C15:0 relative percentage of fatty acids (A. fumigatus CEA10): 0.39 ± 0.11
- C16:0 (palmitic acid) relative percentage of fatty acids (A. fumigatus CEA10): 18.71 ± 0.25
- C16:1n7 relative percentage of fatty acids (A. fumigatus CEA10): 0.38 ± 0.041
- C17a relative percentage of fatty acids (A. fumigatus CEA10): 0.18 ± 0.15
- C18:0 (stearic acid) relative percentage of fatty acids (A. fumigatus CEA10): 3.06 ± 0.26
- C18:1n7 relative percentage of fatty acids (A. fumigatus CEA10): 0.00 ± 0
- C18:1n9 (oleic acid) relative percentage of fatty acids (A. fumigatus CEA10): 31.26 ± 1.67
- C18:2n6 relative percentage of fatty acids (A. fumigatus CEA10): 45.91 ± 1.99
